According to PubChem BioAssay (NCI):
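GI50 is the concentration that inhibits growth by half. Definition used: TGI = concentration required for complete inhibition of growth.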

Key:
Test in all cases: NCI-60 cell line screen, 384-well format
LOX IMVI melanoma = tested on: LOX IMVI melanoma
DU-145 prostate = tested on: DU-145 prostate
OVCAR-4 ovarian = tested on: OVCAR-4 ovarian
UACC-62 melanoma = tested on: UACC-62 melanoma
SF-539 CNS = tested on: SF-539 CNS
RPMI-8226 leukemia = tested on: RPMI-8226 leukemia
MDA-MB-435 melanoma = tested on: MDA-MB-435 melanoma
NCI-H460 NSCLC = tested on: NCI-H460 NSCLC
ACHN renal = tested on: ACHN renal
UACC-257 melanoma = tested on: UACC-257 melanoma
EKVX NSCLC = tested on: EKVX NSCLC
HCT-15 colon = tested on: HCT-15 colon
RXF 393 renal = tested on: RXF 393 renal
SK-MEL-28 melanoma = tested on: SK-MEL-28 melanoma
SNB-19 CNS = tested on: SNB-19 CNS
NCI/ADR-RES ovarian = tested on: NCI/ADR-RES ovarian
HL-60(TB) leukemia = tested on: HL-60(TB) leukemia
OVCAR-3 ovarian = tested on: OVCAR-3 ovarian
MDA-MB-231 breast = tested on: MDA-MB-231 breast
HT29 colon = tested on: HT29 colon
MDA-MB-468 breast = tested on: MDA-MB-468 breast
A498 renal = tested on: A498 renal
HOP-62 NSCLC = tested on: HOP-62 NSCLC
M14 melanoma = tested on: M14 melanoma
NCI-H226 lung = tested on: NCI-H226 lung
KM12 colon = tested on: KM12 colon
MOLT-4 leukemia = tested on: MOLT-4 leukemia
CAKI-1 renal = tested on: CAKI-1 renal
K-562 leukemia = tested on: K-562 leukemia
T-47D breast = tested on: T-47D breast
COLO 205 colon = tested on: COLO 205 colon
SK-MEL-2 melanoma = tested on: SK-MEL-2 melanoma
TK-10 renal = tested on: TK-10 renal
SK-MEL-5 melanoma = tested on: SK-MEL-5 melanoma
HCC-2998 colon = tested on: HCC-2998 colon
MCF7 breast = tested on: MCF7 breast
HS 578T breast = tested on: HS 578T breast
PC-3 prostate = tested on: PC-3 prostate
BT-549 breast = tested on: BT-549 breast
NCI-H322M lung = tested on: NCI-H322M lung
NCI-H23 lung = tested on: NCI-H23 lung
SN12C renal = tested on: SN12C renal
IGROV1 ovarian = tested on: IGROV1 ovarian
SK-OV-3 ovarian = tested on: SK-OV-3 ovarian
786-0 renal = tested on: 786-0 renal
SF-295 CNS = tested on: SF-295 CNS
OVCAR-8 ovarian = tested on: OVCAR-8 ovarian

SMILES: COc1nn(C)cc1Nc1nccc(-c2c[nH]c3c(NC(=O)[C@@H](C)N4CCN(C)CC4)cccc23)n1
- GI50 (LOX IMVI melanoma): 15.1 µM
- TGI (LOX IMVI melanoma): 28.4 µM
- GI50 (DU-145 prostate): 40.4 µM
- TGI (DU-145 prostate): > 100 µM
- GI50 (OVCAR-4 ovarian): 30.2 µM
- TGI (OVCAR-4 ovarian): > 62.1 µM
- GI50 (UACC-62 melanoma): 17.7 µM
- TGI (UACC-62 melanoma): 38.2 µM
- GI50 (SF-539 CNS): 14.8 µM
- TGI (SF-539 CNS): 30.3 µM
- GI50 (RPMI-8226 leukemia): 11.2 µM
- TGI (RPMI-8226 leukemia): 26.6 µM
- GI50 (MDA-MB-435 melanoma): 13.5 µM
- TGI (MDA-MB-435 melanoma): 30.8 µM
- GI50 (NCI-H460 NSCLC): 25.4 µM
- TGI (NCI-H460 NSCLC): > 77 µM
- GI50 (ACHN renal): 21.3 µM
- TGI (ACHN renal): > 67.2 µM
- GI50 (UACC-257 melanoma): 16.9 µM
- TGI (UACC-257 melanoma): 30.7 µM
- GI50 (EKVX NSCLC): 18.7 µM
- TGI (EKVX NSCLC): 49.5 µM
- GI50 (HCT-15 colon): 18.7 µM
- TGI (HCT-15 colon): 51.7 µM
- GI50 (RXF 393 renal): 14.9 µM
- TGI (RXF 393 renal): 30.6 µM
- GI50 (SK-MEL-28 melanoma): 26.9 µM
- TGI (SK-MEL-28 melanoma): > 66.1 µM
- GI50 (SNB-19 CNS): 41.2 µM
- TGI (SNB-19 CNS): > 100 µM
- GI50 (NCI/ADR-RES ovarian): 45.4 µM
- TGI (NCI/ADR-RES ovarian): > 100 µM
- GI50 (HL-60(TB) leukemia): 11.8 µM
- TGI (HL-60(TB) leukemia): 24.1 µM
- GI50 (OVCAR-3 ovarian): 18.7 µM
- TGI (OVCAR-3 ovarian): 51.2 µM
- GI50 (MDA-MB-231 breast): 28 µM
- TGI (MDA-MB-231 breast): > 95.5 µM
- GI50 (HT29 colon): 17.7 µM
- TGI (HT29 colon): 32.8 µM
- GI50 (MDA-MB-468 breast): 15.1 µM
- TGI (MDA-MB-468 breast): 30.9 µM
- GI50 (A498 renal): 14.2 µM
- TGI (A498 renal): > 60.4 µM
- GI50 (HOP-62 NSCLC): 29.7 µM
- TGI (HOP-62 NSCLC): > 89.1 µM
- GI50 (M14 melanoma): 16.1 µM
- TGI (M14 melanoma): 31.2 µM
- GI50 (NCI-H226 lung): 9.15 µM
- TGI (NCI-H226 lung): 31.6 µM
- GI50 (KM12 colon): 20.1 µM
- TGI (KM12 colon): 61.2 µM
- GI50 (MOLT-4 leukemia): 13.2 µM
- TGI (MOLT-4 leukemia): 26.4 µM
- GI50 (CAKI-1 renal): 11.7 µM
- TGI (CAKI-1 renal): 28.6 µM
- GI50 (K-562 leukemia): 10.5 µM
- TGI (K-562 leukemia): 26.5 µM
- GI50 (T-47D breast): 29 µM
- TGI (T-47D breast): > 89.4 µM
- GI50 (COLO 205 colon): 20.5 µM
- TGI (COLO 205 colon): 36.9 µM
- GI50 (SK-MEL-2 melanoma): 14.7 µM
- TGI (SK-MEL-2 melanoma): 29.5 µM
- GI50 (TK-10 renal): 20.5 µM
- TGI (TK-10 renal): > 60 µM
- GI50 (SK-MEL-5 melanoma): 14.5 µM
- TGI (SK-MEL-5 melanoma): 28.3 µM
- GI50 (HCC-2998 colon): 19.5 µM
- TGI (HCC-2998 colon): 37.3 µM
- GI50 (MCF7 breast): 18 µM
- TGI (MCF7 breast): > 71.9 µM
- GI50 (HS 578T breast): 13 µM
- TGI (HS 578T breast): 25.9 µM
- GI50 (PC-3 prostate): 23.1 µM
- TGI (PC-3 prostate): 86 µM
- GI50 (BT-549 breast): 17.2 µM
- TGI (BT-549 breast): 32.4 µM
- GI50 (NCI-H322M lung): > 52.3 µM
- TGI (NCI-H322M lung): > 100 µM
- GI50 (NCI-H23 lung): 17.4 µM
- TGI (NCI-H23 lung): 42.3 µM
- GI50 (SN12C renal): 26 µM
- TGI (SN12C renal): > 100 µM
- GI50 (IGROV1 ovarian): 18.8 µM
- TGI (IGROV1 ovarian): 52.4 µM
- GI50 (SK-OV-3 ovarian): 9.78 µM
- TGI (SK-OV-3 ovarian): 31.6 µM
- GI50 ([…]-0 renal): 18.4 µM
- TGI (786-0 renal): 41.5 µM
- GI50 (SF-295 CNS): 28.1 µM
- TGI (SF-295 CNS): > 61.6 µM
- GI50 (OVCAR-8 ovarian): 45.1 µM
- TGI (OVCAR-8 ovarian): > 76.3 µM
